This is an account of results in patent US20130171158A1, “TREATMENT OF ABNORMALITIES OF GLUCOSE METABOLISM WITH AN ANTAGONIST OF INHIBITOR OF DIFFERENTIATION 1” (GARVAN INSTITUTE OF MEDICAL RESEARCH, priority 2010, published 2013).

The subject of this test is MIN6 cells. Briefly: Insulin secretion assay in MIN6 cells treated with palmitate with or without Cannabidiol. It is filed as cell-based, mouse. The following applies: 10 μM Cannabidiol, 0.4 mM palmitate coupled to 0.92% BSA for 48 h; 2.8 or 25 mM glucose for 1 h. On the procedure: FIG. 11 is a graphical represenatation showing that an inhibitor of Id1 expression (Cannabidiol) protects MIN6 beta cells against lipid (palmitate)-induced insulin secretory dysfunction. Cells were treated with either 0.92% BSA or 0.92% BSA coupled to 0.4 mM palmitate for 48 h, in combination with the absence or presence of 10 μM Cannabidiol. Insulin secretion assay was performed. After 30-min preincubation in KRB medium containing 2.8 mM glucose, the cells were incubated in KRB medium containing either 2.8 mM glucose (clear bars) or 25 mM glucose (dark bars) for 1 h. Medium was taken to determine levels of insulin secretion. Insulin secretion expressed as fold change compared with Control cells incubated with 25 mM glucose. Results are means±SE. The MIN6 cell line was also used to examine the effects of inhibition of Id1 on lipid-induced insulin secretory dysfunction. MIN6 cells were grown in DMEM. Cells were seeded at 2×10^5 cells per well in 24-well plates. Cells were treated with either 0.92% BSA or 0.92% BSA coupled to 0.4 mM palmitate for 48 h, in combination with the absence or presence of 10 μM Cannabidiol. After chronic incubation, cells were washed in KRB buffer containing 2.8 mM glucose, and then they were preincubated for a further 30 min in 0.5 ml of the same medium at 37° C. […]

Regarding `C=C(C)[C@@H]1CCC(C)=C[C@H]1c1c(O)cc(CCCCC)cc1O` [Cannabidiol], the “protection against palmitate-induced insulin secretory dysfunction” value is listed as “protected the cells against palmitate-induced insulin secretory dysfunction”.
